Results on 22 molecules are retold here after patent publication US20250197376A1, “PYRAZINE AMIDE DERIVATIVES” (Novartis AG, priority 2022, published 2025).

The subject of the assay is 3D7 P. falciparum strain. As to the kind of experiment: P. falciparum 3D7 parasite proliferation assay (SYBR Green). It counts as cell-based. As to conditions: Plasmodium falciparum, Erythrocyte; 3D7 P. falciparum infected human erythrocytes, 72 hours, SYBR Green fluorescence; read-out: Pf3D7 Activity. In a few lines: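 3D7-infected O+ human erythrocytes (0.3% parasitemia, 2.5% hematocrit) were exposed to compound for 72 hours at 37 °C under 93% N2/4% CO2/3% O2. After overnight lysis with SYBR Green, fluorescence (ex 425/em 530 nm) gave parasite DNA content. EC50 was calculated against DMSO.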

In the case of `Cc1c(-c2cncc(C(=O)NCC3(N)CCC3)n2)[nH]c2ccccc12` [Example 84, N-((1-aminocyclobutyl)methyl)-6-(3-methyl-1H-indol-2-yl)pyrazine-2-carboxamide], the EC50 was 10 to 100 nM.
Then `Cc1c(-c2cncc(C(=O)NCCC(C)(C)N)n2)[nH]c2ccccc12` [Example 85, N-(3-amino-3-methylbutyl)-6-(3-methyl-1H-indol-2-yl)pyrazine-2-carboxamide], with 10 to 100 nM.
As for `Cc1c(-c2cncc(C(=O)NCCN)n2)[nH]c2ccccc12` [Example 86, N-(2-aminoethyl)-6-(3-methyl-1H-indol-2-yl)pyrazine-2-carboxamide], the EC50 is 10 to 100 nM.
Turning to `Cc1c(-c2cncc(C(=O)NC34CC(N)(C3)C4)n2)[nH]c2ccccc12` [Example 87, N-(3-aminobicyclo[1.1.1]pentan-1-yl)-6-(3-methyl-1H-indol-2-yl)pyrazine-2-carboxamide], the EC50 lay within 10 to 100 nM.
In the case of `Cc1c(-c2cncc(C(=O)NC(C)(C)CN)n2)[nH]c2ccccc12` [Example 88, N-(1-amino-2-methylpropan-2-yl)-6-(3-methyl-1H-indol-2-yl)pyrazine-2-carboxamide], the EC50 was 10 to 100 nM.
Then `Cc1c(-c2cncc(C(=O)NCC3(N)CCOCC3)n2)[nH]c2ccccc12` [Example 89, N-((4-aminotetrahydro-2H-pyran-4-yl)methyl)-6-(3-methyl-1H-indol-2-yl)pyrazine-2-carboxamide], with 10 to 100 nM; and `Cc1c(-c2cncc(C(=O)NCCCN)n2)[nH]c2ccccc12` [Example 90, N-(3-aminopropyl)-6-(3-methyl-1H-indol-2-yl)pyrazine-2-carboxamide], with above 100 nM.
The figure for `Cc1c(-c2cncc(C(=O)NC3CNC3)n2)[nH]c2ccccc12` [Example 91, N-(azetidin-3-yl)-6-(3-methyl-1H-indol-2-yl)pyrazine-2-carboxamide] is above 100 nM; for `Cc1c(-c2cncc(C(=O)NC3CCC(N)C3)n2)[nH]c2ccccc12` (stereo not shown) [Example 92, N-(3-aminocyclopentyl)-6-(3-methyl-1H-indol-2-yl)pyrazine-2-carboxamide] it is above 100 nM; for `Cc1c(-c2cncc(C(=O)NC3CCNCC3)n2)[nH]c2ccccc12` [Example 93, 6-(3-methyl-1H-indol-2-yl)-N-(piperidin-4-yl)pyrazine-2-carboxamide] it is above 100 nM.
Then `Cc1c(-c2cncc(C(=O)NCC(N)CO)n2)[nH]c2ccccc12` (stereo not shown) [Example 94, N-(2-amino-3-hydroxypropyl)-6-(3-methyl-1H-indol-2-yl)pyrazine-2-carboxamide], with above 100 nM; and `Cc1c(-c2cncc(C(=O)NCC3(N)COC3)n2)[nH]c2ccccc12` [Example 95, N-((3-aminooxetan-3-yl)methyl)-6-(3-methyl-1H-indol-2-yl)pyrazine-2-carboxamide], with above 100 nM.
Consider `Cc1c(-c2cncc(C(=O)NCC(C)(C)N3CCOCC3)n2)[nH]c2ccccc12` [Example 96, 6-(3-Methyl-1H-indol-2-yl)-N-(2-methyl-2-morpholinopropyl)pyrazine-2-carboxamide], for which the EC50 is above 100 nM.
The figure for `Cc1c(-c2cncc(C(=O)N[C@H]3CC[C@H](N)CC3)n2)[nH]c2ccccc12` [Example 97, N-((1r,4r)-4-aminocyclohexyl)-6-(3-methyl-1H-indol-2-yl)pyrazine-2-carboxamide] is above 100 nM.
As for `Cc1c(-c2cncc(C(=O)NCC(C)(C)O)n2)[nH]c2ccccc12` [Example 100, N-(2-hydroxy-2-methylpropyl)-6-(3-methyl-1H-indol-2-yl)pyrazine-2-carboxamide], the EC50 was above 100 nM.
`Cc1c(-c2cncc(C(=O)NCC(N)C3CC3)n2)[nH]c2ccccc12` (stereo not shown) [Example 102]: the EC50 was 10 to 100 nM.
Then `CC(C)(N)CNC(=O)c1cncc(-c2cc3cc(C#N)ccc3[nH]2)n1` [Example 104], with above 100 nM.
`CC(C)(N)CNC(=O)c1cncc(-c2[nH]c3ccc(OC(F)(F)F)cc3c2Cl)n1` [Example 106, N-(2-Amino-2-methylpropyl)-6-(3-chloro-5-(trifluoromethoxy)-1H-indol-2-yl)pyrazine-2-carboxamide]: the EC50 was below 10 nM.
Take `Cc1c(-c2cncc(C(=O)NCC(C)(C)N)n2)[nH]c2ccc(C(=O)NCC(C)(C)N)cc12` [Example 107, N-(2-amino-2-methylpropyl)-2-(6-((2-amino-2-methylpropyl)carbamoyl)pyrazin-2-yl)-3-methyl-1H-indole-5-carboxamide]: the EC50 was above 100 nM.
The figure for `CC(C)(N)CNC(=O)c1cncc(-c2cc3sc(C(N)=O)cc3[nH]2)n1` [Example 108, 5-(6-((2-amino-2-methylpropyl)carbamoyl)pyrazin-2-yl)-4H-thieno[3,2-b]pyrrole-2-carboxamide] is above 100 nM.
Then `CN(C)C(=O)c1cc2[nH]c(-c3cncc(C(=O)NCC(C)(C)N)n3)cc2s1` [Example 109, 5-(6-((2-amino-2-methylpropyl)carbamoyl)pyrazin-2-yl)-N,N-dimethyl-4H-thieno[3,2-b]pyrrole-2-carboxamide], with above 100 nM.
`CC(C)(N)CNC(=O)c1cncc(-c2cc3cc(F)c(O)cc3[nH]2)n1` [Example 110, N-(2-amino-2-methylpropyl)-6-(5-fluoro-6-hydroxy-1H-indol-2-yl)pyrazine-2-carboxamide]: the EC50 is above 100 nM.
